Measurements published in PMC9569954, “The Antidepressant-like Activity, Effects on Recognition Memory Deficits, Bioavailability, and Safety after Chronic Administration of New Dual-Acting Small Compounds Targeting Neuropsychiatric Symptoms in Dementia” (International Journal of Molecular Sciences, 2022).
Where two headings read alike, the source gives them in different places.

Key:
[1] = Ferric-reducing antioxidant power (FRAP) of serum; assay type: in vivo, rats; conditions: rat, 1 mg/kg/day i.p., 21 days
Experimental: The assay was performed according to Benzie and Strain [46] with some modifications. The FRAP working solution was prepared before the start of the analysis, namely, 0.3 mol acetate buffer (pH 3.6), 0.01 mol TPTZ (2,4,6-tripyridyl-s-triazine; Sigma-Aldrich) in 0.04 mol HCl (POCh, Gliwice, Poland), and 0.02 M FeCl3×6H2O in water (iron (III) chloride hexahydrate; Chempur, Piekary Śląskie, Poland) were mixed in a volumetric ratio of 10:1:1 and protected from light.
Next, 20 µL of the plasma sample tested, brain homogenate, or FeSO4×7H2O solution was mixed with 180 µL of the FRAP working solution. The mixtures obtained were incubated at 37 °C for 30 min and their absorbance was measured at 593 nm. FeSO4×7H2O (100–1000 µM/L) was used for a calibration curve. Deionized water with FRAP solution was used as a blank.

[2] = Pharmacokinetics and brain uptake after i.v. and i.g. administration; assay type: in vivo, male Wistar rats; conditions: rat; for half-life / Cmax / MRT / AUC(0-t) / C0 / clearance / bioavailability / Tmax / Kp / Vd: male, Wistar; for half-life: in vivo, elimination from body, route not stated; for bioavailability: i.g. 2 mg/kg vs i.v. 0.5 mg/kg, read-out: F (absolute bioavailability); for Kp: brain/plasma, read-out: Brain/Plasma ratio; for Vd: read-out: Vss
Description: The compounds investigated, namely, PQA-AZ4 and PQA-AZ6 (UPLC/MS purity > 95%), were synthesized at the Department of Medicinal Chemistry, Jagiellonian University Medical College (synthesis described in [10]); PQ-10, (6,7-dimethoxy-4-[(3R)-3-(2-quinoxalinyloxy)-1-pyrrolidinyl]-quinazoline, was obtained from Sigma-Aldrich (St. Louis, MO, USA). For the studies, the compounds were suspended in 1% aqueous solution of Tween 80, while (+)-MK-801 (hydrogen maleate, Sigma-Aldrich, St. Louis, MO, USA) was dissolved in distilled water. In the behavioral studies, PQA-AZ4, PQA-AZ6, and PQ-10 were injected intraperitoneally (i.p.) once a day (between 9:00 AM and 10:00 AM) for 21 consecutive days at the minimum active doses selected previously, based on acute treatment and assessment in behavioral tests at a volume of 2 mL/kg body weight. The control groups received 1% aqueous solution of Tween 80 (Sigma-Aldrich, St. Louis, MO, USA) in the same schedule. For the pharmacokinetic study, PQA-AZ4 and PQA-AZ6 dissolved in 20% captizol (Ligand, San Diego, CA, USA) were administered intravenously (i.v.) and intragastrically (i.g.) at a dose of 0.5 and 2 mg/kg, respectively, while ketamine (50 mg/kg, (hydrochloride, Biowet Puławy, Puławy, Poland)) and xylazine (8 mg/kg, hydrochloride, Biowet Puławy, Poland)) were injected i.p.
HPLC grade methanol, acetonitrile and reagent grade formic acid, hydrochloric acid, potassium dihydrogen phosphate, orthophosphoric acid, and sodium chloride were purchased from Merck (Darmstadt, Germany). Tissues (control blood and brain) were obtained from adult male Wistar rats anesthetized by i.p. injection of 50 mg/kg ketamine plus 8 mg/kg xylazine, and blood samples were collected in heparinized tubes from the heart. Blood samples were collected at 0 (predose), 15, 60, 240, and 1440 min after compound administration. The plasma was separated by centrifugation (1000× g, 10 min). Plasma and brain were stored at −80 °C pending analysis. The LC/ESI-MS/MS experiments were performed on a UPLC ACQUITY H-Class PLUS/Xevo TQD (Waters Corporation, Milford, MA, USA) triple-quadrupole mass spectrometer equipped with an electrospray (ESI) ionization interface. Data acquisition and processing were accomplished using MassLynx data collection and integration software. For the chromatographic and mass spectrometric conditions, and sample pretreatment, please see the Supplementary Materials.
Pharmacokinetic parameters were calculated by a noncompartmental approach from the average concentration values, using Phoenix WinNonlin software (Certara, Princeton, NJ 08540 USA). The first-order elimination rate constant (λz) was calculated by linear regression of log concentration versus time. The area under the mean plasma and brain concentration versus time curve (AUC0→t) was calculated from zero to the last concentration point using the linear trapezoidal rule:(1) AUC0→t=∑i=1nCi+Ci+1/2·(ti+1−ti) where Ci is the concentration of the compound.
The area under the first-moment curve (AUMC0→t) was estimated by calculation of the total area under the first-moment curve:(2) AUMC0→t=∑i=1n((ti·Ci+ti+1·Ci+1)/2)·(ti+1−ti) where ti is the […].
Mean residence time (MRT) was calculated as:(3) MRT=AUMC0→t/AUC0→t
Systemic clearance (Cl) was calculated as:(4) Cl=Div/AUC0→t
The volume of distribution at steady state (Vss) was calculated as:(5) Vss=Div⋅AUMC0→t/(AUC0→t )^2
The absolute bioavailability (F) of PQA-AZ4 and PQA-AZ6 after i.g. administration was calculated as:(6) F(%)=AUCi.g./AUCi.v.⋅Di.v./Di.g.⋅100 where Di.v. and Di.g. are i.v. and i.g. doses of the studied molecules, respectively.
1. Methods in pharmacokinetic studies
Instrumentation and operating conditions
The LC/ESI-MS/MS experiments were performed on a UPLC ACQUITY H-Class PLUS/Xevo
TQD (Waters Corporation, USA) triple-quadrupole mass spectrometer equipped with an electrospray
(ESI) ionization interface. Data acquisition and processing were accomplished using MassLynx data […]

Body weight measurement = assay type: in vivo, rats; conditions: rat, 20-day administration, 1 mg/kg/day i.p.
Experimental: Body weight was measured every second day, immediately before the administration of drugs.

[3] = brain, iv, 0.5 mg/kg, i.v. 0.5 mg/kg
[4] = brain, po, 2 mg/kg, i.g. 2 mg/kg
[5] = plasma, iv, 0.5 mg/kg, i.v. 0.5 mg/kg, plasma
[6] = plasma, po, 2 mg/kg, i.g. 2 mg/kg

For `COc1cccc(N2CCN(CC3CCN(c4ncnc5cc(OC)c(OC)cc45)C3)CC2)c1` (stereo not drawn) [PQA-AZ4, 6,7-Dimethoxy-4-(3-((4-(3-methoxyphenyl)piperazin-1-yl)methyl)pyrrolidin-1-yl)quinazoline], the “total antioxidant activity of serum (Fe2+ formed, FRAP) vs control” value [1] was “comparable”, the half-life [2] was roughly 1 h and the Cmax ([2]; iv, i.v. 0.5 mg/kg, brain) was 149 ng/g. It also gave an MRT ([2]; iv, i.v. 0.5 mg/kg, brain) of 3.1 h, an AUC(0-t) ([2]; iv, i.v. 0.5 mg/kg, plasma) of 714 ng·h/mL and a C0 ([2]; iv, i.v. 0.5 mg/kg, plasma) of 431 ng/mL. The MRT ([2]; iv, i.v. 0.5 mg/kg, plasma) was 0.958 h, the clearance ([2]; iv, i.v. 0.5 mg/kg, plasma) was 10.8 mL/min/kg and the bioavailability ([2]; plasma, oral) was 8.29%. The bioavailability ([2]; plasma, po) was 8.3%, the Cmax ([2]; po, i.g. 2 mg/kg, brain) was 71.4 ng/g and the MRT ([2]; po, i.g. 2 mg/kg, brain) was 3.58 h. For the same compound, the AUC(0-t) ([2]; po, i.g. 2 mg/kg, plasma) was 118 ng·h/mL, the Cmax ([2]; po, i.g. 2 mg/kg, plasma) was 46.7 ng/mL and the MRT ([2]; po, i.g. 2 mg/kg, plasma) was 1.38 h. It also gave a Tmax [2, 3] of 0.25 h, a Tmax [2, 4] of 1 h and a Kp ([2]; iv, 0.5 mg/kg, i.v. 0.5 mg/kg) of 0.9. The Kp ([2]; po, 2 mg/kg, i.g. 2 mg/kg) was 5.7, the Vd [2, 5] was 0.8 L/kg and the Tmax [2, 6] was no more than 1 h. For the same compound, the Brain/Plasma ratio ([2]; i.g. 2 mg/kg) was 5.68, the AUC0→t ([2]; i.g. 2 mg/kg, brain) was 40,314 ng·min/g and the t0.5 ([2]; i.g. 2 mg/kg, brain) was 214 min. For the same compound, the t0.5 ([2]; i.g. 2 mg/kg, plasma) was 92 min, the AUC0→t ([2]; i.v. 0.5 mg/kg, brain) was 40,806 ng·min/g and the t0.5 ([2]; i.v. 0.5 mg/kg, brain) was 220 min. For the same compound, the t0.5 ([2]; i.v. 0.5 mg/kg, plasma) was 67.3 min and the “weight gain vs vehicle” value (Body weight measurement) was “No significant effect”.
In the case of `COc1cc2ncnc(N3CCC(CN4CCN(c5ccc(Cl)cc5)CC4)C3)c2cc1OC` (stereo not drawn) [PQA-AZ6, 4-(3-((4-(4-Chlorophenyl)piperazin-1-yl)methyl)pyrrolidin-1-yl)-6,7-dimethoxyquinazoline], the “total antioxidant activity of serum (Fe2+ formed, FRAP) vs control” value [1] is reported as “comparable”, the half-life [2] is reported as roughly 1 h and the Cmax ([2]; iv, i.v. 0.5 mg/kg, brain) is reported as 113 ng/g. The MRT ([2]; iv, i.v. 0.5 mg/kg, brain) was 7.4 h, the AUC(0-t) ([2]; iv, i.v. 0.5 mg/kg, plasma) was 93.6 ng·h/mL and the C0 ([2]; iv, i.v. 0.5 mg/kg, plasma) was 102 ng/mL. For the same compound, the MRT ([2]; iv, i.v. 0.5 mg/kg, plasma) was 0.742 h, the clearance ([2]; iv, i.v. 0.5 mg/kg, plasma) was 85.2 mL/min/kg and the bioavailability ([2]; plasma, oral) was 38.4%. It also gave a Cmax ([2]; po, i.g. 2 mg/kg, brain) of 342 ng/g, an MRT ([2]; po, i.g. 2 mg/kg, brain) of 12 h and an AUC(0-t) ([2]; po, i.g. 2 mg/kg, plasma) of 144 ng·h/mL. It also gave a Cmax ([2]; po, i.g. 2 mg/kg, plasma) of 99.5 ng/mL, an MRT ([2]; po, i.g. 2 mg/kg, plasma) of 1.11 h and a Tmax [2, 3] of 0.25 h. It also gave a Tmax [2, 4] of 0.25 h, a Kp ([2]; iv, 0.5 mg/kg, i.v. 0.5 mg/kg) of 8.6 and a Kp ([2]; po, 2 mg/kg, i.g. 2 mg/kg) of 5.3. It also gave a Vd [2, 5] of roughly 4.7 L/kg, a Tmax [2, 6] of 0.25 h and a Brain/Plasma ratio ([2]; i.g. 2 mg/kg) of 5.29. The AUC0→t ([2]; i.g. 2 mg/kg, brain) was 45,623 ng·min/g, the t0.5 ([2]; i.g. 2 mg/kg, brain) was 1928 min and the t0.5 ([2]; i.g. 2 mg/kg, plasma) was 216.8 min. The AUC0→t ([2]; i.v. 0.5 mg/kg, brain) was 48,321 ng·min/g, the t0.5 ([2]; i.v. 0.5 mg/kg, brain) was 597 min and the t0.5 ([2]; i.v. 0.5 mg/kg, plasma) was 54.2 min. The “weight gain vs vehicle” value (Body weight measurement) was “No significant effect”.
